pIC50: −log10 of the molar value. In brackets after ≈: the same amount, converted by molar mass.
Assays:
[1] = Hydroxyl radical scavenging assay; settings: for Hydroxyl radical scavenging % inhibition: range, up to 100 μg/ml
Description: (§1) The anti-oxidant activity of vasicine was evaluated with ABTS [2,2′-azino-bis (3-ethylbenzothiazoline-6-sulfonic acid)] activity ([20]), ferric reducing power (FRAP) assay, DPPH radical scavenging activity, hydroxyl radical scavenging activity ([21]–[24]), and hydrogen peroxide assay ([25]).

[2] = target: proteinase; experiment: Proteinase inhibitory activity; assay type: biochemical
Description: (§2) The anti-inflammatory activity of vasicine was investigated with lipooxygenase (LOX) inhibition assay ([26]), bovine serum albumin (BSA) method ([27]), egg albumin method ([28], [29]), and protein inhibitory action ([30]).

[3] = test system: human fibroblast cell line, C0135C; experiment: Cytotoxicity evaluation, MTT assay; assay type: cell-based; settings: cell viability
Description: (§3) The anticancer activity of vasicine for the potential treatment of lung carcinoma (A545) was evaluated in a multi-step process. Cytotoxicity of vasicine was investigated by cytotoxicity evaluation (human fibroblast cell line, C0135C) ([39], [40]), direct microscopic observation ([41]), and MTT assay ([42]).

[4] = ABTS scavenging activity
Description: as §1

[5] = target: α-amylase; experiment: α-amylase inhibition assay; assay type: biochemical
Description: (§4) The antidiabetic activity of vasicine was evaluated with in vitro enzymatic assays using α-amylase and α-glucosidase ([31]–[36]). The non-enzymatic glycosylation of hemoglobin assay was also carried out ([37]).

[6] = test system: Bacillus badius; experiment: Antibacterial colony forming units (CFU) assay; assay type: cell-based; settings: increasing concentration of purified vasicine
Description: (§5) Antibacterial assay was carried outby colony forming units (CFU) assay using anaerobic and facultative oral bacteria ([17]). Two different bacterial strains (Escherichia coli and Bacillus badius) were collected from NCCS, Pune. […] The broth were kept in incubator at 37°C for 24 h. Two strains of Bacteria were grown in MH broth to an OD600nm of 0.5. 2 μLaliquot of the bacteria and 5 ml of fresh MH broth (contains various concentration of vasicine) was added ([19]). The log10 reduction in CFU/ml was determined.

[7] = test system: Escherichia coli; experiment: Antibacterial colony forming units (CFU) assay; assay type: cell-based; settings: E. coli; increasing concentration of purified vasicine
Description: as §5

[8] = target: bovine serum albumin (BSA) (Bos taurus, UniProt P02769); experiment: BSA method (albumin denaturation); assay type: biochemical
Description: as §2

[9] = Ferric reducing antioxidant power (FRAP) assay
Description: as §1

[10] = test system: lung carcinoma (A545); experiment: Anticancer activity, direct microscopic observation and MTT assay; assay type: cell-based
Description: as §3

[11] = target: hemoglobin (Homo sapiens, UniProt P68871+P69905); experiment: Non-enzymatic glycosylation of hemoglobin assay; assay type: biochemical; settings: incubation of hemoglobin with glucose for 72 h; in comparison to the standard drug
Description: as §4

[12] = DPPH radical scavenging activity; settings: for DPPH % inhibition: at 100 μg/ml
Description: as §1

[13] = Hydrogen peroxide assay
Description: as §1

[14] = target: lipooxygenase (LOX); experiment: Lipooxygenase inhibition assay; assay type: biochemical
Description: as §2

[15] = target: T1, egg albumin (Gallus gallus, UniProt P01012); experiment: Egg albumin method (albumin denaturation); assay type: biochemical; settings: for Inhibition of albumin denaturation: concentration range 10 to 100 μg/ml
T1 sequence (P01012 1-386): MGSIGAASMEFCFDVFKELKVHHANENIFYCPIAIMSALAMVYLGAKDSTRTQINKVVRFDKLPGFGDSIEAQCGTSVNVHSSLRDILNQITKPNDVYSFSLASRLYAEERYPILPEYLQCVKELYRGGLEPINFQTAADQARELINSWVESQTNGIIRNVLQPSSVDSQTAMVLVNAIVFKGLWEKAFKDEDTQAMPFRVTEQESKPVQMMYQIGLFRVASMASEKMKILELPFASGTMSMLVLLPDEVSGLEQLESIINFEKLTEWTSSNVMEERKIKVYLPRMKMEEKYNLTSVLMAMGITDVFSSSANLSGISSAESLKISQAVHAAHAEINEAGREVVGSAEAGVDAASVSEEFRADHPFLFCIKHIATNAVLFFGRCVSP
Description: as §2

[16] = test system: serum alkaline phosphatase; design: method as in Srinivasarao et al. ([60]); settings: Swiss albino mice treated with vasicine; ref Srinivasarao et al. ([60]); cited from earlier work

Chain of bovine serum albumin (BSA) (P02769 25-607): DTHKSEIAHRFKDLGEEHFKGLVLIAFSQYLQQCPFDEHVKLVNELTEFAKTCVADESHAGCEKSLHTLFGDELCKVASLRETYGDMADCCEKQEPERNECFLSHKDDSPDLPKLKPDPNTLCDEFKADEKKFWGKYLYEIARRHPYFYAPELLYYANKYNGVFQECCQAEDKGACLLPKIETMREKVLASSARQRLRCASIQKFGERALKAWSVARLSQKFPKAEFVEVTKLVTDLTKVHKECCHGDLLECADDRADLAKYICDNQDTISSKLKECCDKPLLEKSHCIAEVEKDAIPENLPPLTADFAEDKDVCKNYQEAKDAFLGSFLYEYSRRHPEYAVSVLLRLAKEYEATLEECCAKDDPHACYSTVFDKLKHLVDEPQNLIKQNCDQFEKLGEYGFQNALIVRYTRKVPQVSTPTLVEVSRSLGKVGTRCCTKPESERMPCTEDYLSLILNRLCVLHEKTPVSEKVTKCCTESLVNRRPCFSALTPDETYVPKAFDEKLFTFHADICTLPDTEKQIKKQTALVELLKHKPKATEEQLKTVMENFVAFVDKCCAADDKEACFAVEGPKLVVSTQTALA
Chain of hemoglobin (P69905 2-142 limits assumed): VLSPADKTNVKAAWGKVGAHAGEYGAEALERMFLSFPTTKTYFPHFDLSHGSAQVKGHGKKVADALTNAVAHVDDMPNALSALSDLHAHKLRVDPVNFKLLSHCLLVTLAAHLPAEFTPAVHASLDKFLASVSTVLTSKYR
Chain of hemoglobin (P68871 2-147 limits assumed): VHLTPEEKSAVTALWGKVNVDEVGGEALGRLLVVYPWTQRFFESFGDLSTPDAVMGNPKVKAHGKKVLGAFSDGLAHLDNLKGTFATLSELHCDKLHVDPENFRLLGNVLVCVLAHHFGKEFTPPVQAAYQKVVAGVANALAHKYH

## O[C@H]1CCN2Cc3ccccc3N=C12 [vasicine]
[1]
  Hydroxyl radical scavenging IC50: 22 µg/mL
  Hydroxyl radical scavenging % inhibition: 12–69%
[2]
  Proteinase inhibitory IC50: 76 µg/mL
[3]
  IC50: 82.5 µg/mL (≈ 438 µM)
[4]
  ABTS scavenging IC50: 11.5 µg/mL
[5]
  α-amylase inhibition IC50: 47.6 µg/mL
[6]
  Number of colonies (CFU assay): number of colonies reduced
[7]
  Number of colonies (CFU assay): number of colonies reduced
[8]
  pIC50: 3.56
[8]; maximum
  BSA method maximum percentage of inhibition: 82%
[9]
  FRAP IC50: 15 µg/mL
[9]; at 100 μg/ml
  FRAP % inhibition: 62%
[10]; A545, read-out: Growth inhibition of lung cancer cell line
  inhibition at 100 µg/mL: 30.1%
[10]; discussion statement, concentration not given
  Inhibition of cell growth, lung cancer cell line: More than 50%
[11]
  Inhibition of hemoglobin glycosylation: substantially inhibits hemoglobin glycosylation
[12]
  DPPH radical scavenging IC50: 18.2 µg/mL
  DPPH % inhibition: 81%
[13]
  Hydrogen peroxide assay IC50: 27.8 µg/mL
[13]; 10–100 μg
  Inhibitory activity against hydrogen peroxide: 9–59%
[14]
  Lipooxygenase IC50: 76 µg/mL
[14]; maximum
  Lipooxygenase maximum percentage inhibition: 83%
[15]
  pIC50: 3.55
  Inhibition of albumin denaturation: 81%
[16]
  Serum alkaline phosphatase: increase in serum alkaline phosphatase

## CC(=O)Oc1ccccc1C(=O)O [aspirin, reference compound]
[2]; standard
  Proteinase % inhibition: 79%

## O=C1O[C@H]([C@@H](O)CO)C(O)=C1O [ascorbic acid, reference compound]
[1]
  Hydroxyl radical scavenging % inhibition: 15–86%
[12]
  DPPH % inhibition: 96%

## O=C(O)Cc1ccccc1Nc1c(Cl)cccc1Cl [diclofenac sodium, reference compound]
[14]; at 100 μg/ml
  Lipooxygenase % inhibition: 82%
[15]
  Inhibition of albumin denaturation: 89%
